Results: patent publication US10980765B2, “Isothiocyanatostilbenes as a novel method and product for treating cancer” (BOARD OF SUPERVISORS OF LOUISIANA STATE UNIVERSITY AND …, priority 2015, dated 2021)

Tests used:
c-Met [1] = molecular target: T1, c-Met (Homo sapiens, UniProt P08581); test: Western blot of c-Met activation (phospho-c-Met) by HGF in cancer cell lines; type: cell-based; design: endogenous in cells; host or cells: DU145, PC3, MDA-MB-231, HCC1806
Experimental: (§1) Western blot was used to analyze pMet expression. […] Western blot was used to analyze the indicated proteins.
(§2) Western blot was used to analyze the indicated proteins.
as §2
(§3) Western blot analysis: Cells were grown to ˜70% confluency prior to treatment. Cells were serum-starved in serum-free media for 30 minutes prior to treatment in complete media or serum-free media for the indicated times. Cell lysates were collected in Laemmli (125 mM Tris, 4% SDS, 0.01% bromophenol blue, 30% sucrose) containing 0.5% β-mercaptoethanol and boiled ˜8 minutes. Primary antibodies include: phospho-c-Met (Y1234/1235), phospho-Akt (S473), pEGFR […], pIGF-IRβ (Y1135/1136) (Cell Signaling Technology; Beverly, Mass.); α-actin (Sigma-Aldrich), c-Met (C-28) (Life Technologies). Secondary antibodies include: horseradish peroxidase-conjugated anti-rabbit and anti-mouse (GE Healthcare; Pittsburgh, Pa.). ECL 2 was used for chemiluminescent detection (Thermo Scientific; Rockford, Ill.). Densitometry was calculated using ImageJ (NIH).

EGFR = molecular target: T2, EGFR (Homo sapiens, UniProt P00533); test: Western blot of EGFR activation by EGF in DU145 cells; type: cell-based; conditions: 4 μM DIDS or 25 μM H2DIDS; DU145, 100 ng/ml EGF 20 min
T2 construct: endogenous in cells; host or cells: DU145
Experimental: as §3

IGFR = molecular target: T3, IGFR (Homo sapiens, UniProt P08069); test: Western blot of IGFR activation by IGF in DU145 cells; type: cell-based; conditions: 4 μM DIDS or 25 μM H2DIDS; DU145, 100 ng/ml IGF 20 min
T3 construct: endogenous in cells; host or cells: DU145
T3 sequence (P08069 31-1367): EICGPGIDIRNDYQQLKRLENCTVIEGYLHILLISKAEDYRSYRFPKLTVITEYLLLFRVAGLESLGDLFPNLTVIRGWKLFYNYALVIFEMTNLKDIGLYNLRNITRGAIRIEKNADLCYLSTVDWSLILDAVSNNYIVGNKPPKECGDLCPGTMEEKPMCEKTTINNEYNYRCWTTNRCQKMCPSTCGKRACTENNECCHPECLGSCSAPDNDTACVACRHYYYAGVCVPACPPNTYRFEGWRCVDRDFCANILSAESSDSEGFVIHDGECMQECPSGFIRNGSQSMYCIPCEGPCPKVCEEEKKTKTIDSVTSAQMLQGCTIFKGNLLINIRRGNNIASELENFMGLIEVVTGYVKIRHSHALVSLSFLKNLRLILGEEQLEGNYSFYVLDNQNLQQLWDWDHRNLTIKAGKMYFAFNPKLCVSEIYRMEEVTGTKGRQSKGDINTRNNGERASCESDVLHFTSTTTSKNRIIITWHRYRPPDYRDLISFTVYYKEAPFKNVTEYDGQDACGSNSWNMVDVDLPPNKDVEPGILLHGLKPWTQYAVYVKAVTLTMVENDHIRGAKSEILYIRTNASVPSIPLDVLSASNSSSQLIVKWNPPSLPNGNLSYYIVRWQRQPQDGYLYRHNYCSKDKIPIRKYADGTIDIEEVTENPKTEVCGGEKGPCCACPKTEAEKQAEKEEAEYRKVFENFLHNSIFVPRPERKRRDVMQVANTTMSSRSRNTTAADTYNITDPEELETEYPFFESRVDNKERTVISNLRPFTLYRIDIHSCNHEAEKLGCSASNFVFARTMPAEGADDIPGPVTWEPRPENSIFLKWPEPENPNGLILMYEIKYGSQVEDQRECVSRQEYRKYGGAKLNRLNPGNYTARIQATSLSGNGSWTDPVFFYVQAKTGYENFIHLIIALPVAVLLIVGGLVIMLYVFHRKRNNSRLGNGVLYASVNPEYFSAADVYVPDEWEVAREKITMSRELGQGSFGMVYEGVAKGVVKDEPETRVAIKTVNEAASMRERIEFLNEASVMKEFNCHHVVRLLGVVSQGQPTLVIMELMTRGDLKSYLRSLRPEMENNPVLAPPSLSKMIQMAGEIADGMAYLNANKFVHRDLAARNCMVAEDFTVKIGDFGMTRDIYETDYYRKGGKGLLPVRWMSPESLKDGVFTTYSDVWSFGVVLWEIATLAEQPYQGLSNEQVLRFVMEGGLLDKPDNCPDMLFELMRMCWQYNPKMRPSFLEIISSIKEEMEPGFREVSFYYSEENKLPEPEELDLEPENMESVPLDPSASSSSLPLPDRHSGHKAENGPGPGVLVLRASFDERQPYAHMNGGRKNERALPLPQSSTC
Experimental: as §3

DU145 cells [2] = test: Scattering assay; type: cell-based; conditions: 4 μM DIDS or 25 μM H2DIDS
Experimental: (§4) Cells were fixed and stained for actin. Representative images are shown. […] Data are shown as mean±S.E.M.; n=3.
Cells were fixed and stained for actin. Representative images are shown.
Scattering assay: DU145 cells were grown to ˜50% confluency. […] Cells were fixed with 4% paraformaldehyde and stained with Oregon Green 488 phalloidin (Invitrogen; Carlsbad, Calif.). Images were acquired on an Eclipse TE300 inverted microscope (Nikon; Tokyo, Japan) with NIS Elements version 4.13.04 software. Presented images were taken using a 10× objective.

DU145 cells [3] = test: Wound healing; type: cell-based
Experimental: as §4
(§5) For invasion (FIGS. 4C and 4D), wounded cells were overlaid with Matrigel diluted 1:5 in serum-free media; n=3.
(§6) Wound healing and invasion: DU145 cells were grown to ˜100% confluency prior to wounding with the IncuCyte™ WoundMaker™ (Essen Bioscience; Ann Arbor, Mich.) and washed once with complete media. For invasion, cells were covered with Matrigel diluted 1:5 in serum-free RPMI following wounding. […] Images were taken every 4 hours with the IncuCyte™ ZOOM imaging system (Essen Bioscience). Quadruplicate replicates were used in each experiment. Data are presented as percent wound density ±standard error of the mean (S.E.M.).

DU145 cells [4] = test: Invasion through Matrigel; type: cell-based; conditions: indicated concentrations; 33 ng/mL HGF; Matrigel 1:5
Experimental: as §5, §6

Cells = test: 2D proliferation (Cell Titer Blue); type: cell-based; conditions: 24-72 hours
Experimental: A TO timepoint was also measured. For each timepoint, cells were exposed to Cell Titer Blue reagent (Promega) for 1 hour at 37° C. 5% CO2. Experiments were performed with quadruplicate replicates. Fluorescence was measured using a BioTek Synergy 4 plate reader with Gen5 software.

DU145 spheroids = test: 3D spheroid proliferation; type: cell-based; conditions: 33 ng/mL HGF, Matrigel, 72 hours
Experimental: Data are shown as the percent change in growth from T=0 to T=72 hours. For each of the six independent variables in each bar graph, a representative image at the 72 hour time point is shown. The six corresponding images below each respective bar graph
3D spheroid proliferation: Prior to seeding, cells were incubated with 2.5 ng/μl CellTracker Red (Life Technologies) in complete DMEM lacking Phenol Red for 5 minutes at room temperature then centrifuged at 1000 RPM for 5 minutes. […] The mixture of cells, treatments, and Matrigel in complete media was seeded at 2000 cells/well in a 96 well plate. The plate was centrifuged at 1000 RPM for 3 minutes to collect the cells into the bottom of the plate. Spheroid growth was imaged for up to 80 hours and analyzed for average red object area using the IncuCyte™ ZOOM software. Data are shown as percent change in spheroid growth between TO and […] with HGF normalized to 100% change in growth. Images were captured by the IncuCyte™ ZOOM imaging system and representative 10× images are shown.

wild-type c-Met = wild-type c-Met (Homo sapiens, UniProt P08581); test: Phosphorylation inhibition assay (Z′-LYTE Kinase Assay-Tyr6 Peptide), wild-type c-Met; type: biochemical
wild-type c-Met, sequence (P08581 25-1390): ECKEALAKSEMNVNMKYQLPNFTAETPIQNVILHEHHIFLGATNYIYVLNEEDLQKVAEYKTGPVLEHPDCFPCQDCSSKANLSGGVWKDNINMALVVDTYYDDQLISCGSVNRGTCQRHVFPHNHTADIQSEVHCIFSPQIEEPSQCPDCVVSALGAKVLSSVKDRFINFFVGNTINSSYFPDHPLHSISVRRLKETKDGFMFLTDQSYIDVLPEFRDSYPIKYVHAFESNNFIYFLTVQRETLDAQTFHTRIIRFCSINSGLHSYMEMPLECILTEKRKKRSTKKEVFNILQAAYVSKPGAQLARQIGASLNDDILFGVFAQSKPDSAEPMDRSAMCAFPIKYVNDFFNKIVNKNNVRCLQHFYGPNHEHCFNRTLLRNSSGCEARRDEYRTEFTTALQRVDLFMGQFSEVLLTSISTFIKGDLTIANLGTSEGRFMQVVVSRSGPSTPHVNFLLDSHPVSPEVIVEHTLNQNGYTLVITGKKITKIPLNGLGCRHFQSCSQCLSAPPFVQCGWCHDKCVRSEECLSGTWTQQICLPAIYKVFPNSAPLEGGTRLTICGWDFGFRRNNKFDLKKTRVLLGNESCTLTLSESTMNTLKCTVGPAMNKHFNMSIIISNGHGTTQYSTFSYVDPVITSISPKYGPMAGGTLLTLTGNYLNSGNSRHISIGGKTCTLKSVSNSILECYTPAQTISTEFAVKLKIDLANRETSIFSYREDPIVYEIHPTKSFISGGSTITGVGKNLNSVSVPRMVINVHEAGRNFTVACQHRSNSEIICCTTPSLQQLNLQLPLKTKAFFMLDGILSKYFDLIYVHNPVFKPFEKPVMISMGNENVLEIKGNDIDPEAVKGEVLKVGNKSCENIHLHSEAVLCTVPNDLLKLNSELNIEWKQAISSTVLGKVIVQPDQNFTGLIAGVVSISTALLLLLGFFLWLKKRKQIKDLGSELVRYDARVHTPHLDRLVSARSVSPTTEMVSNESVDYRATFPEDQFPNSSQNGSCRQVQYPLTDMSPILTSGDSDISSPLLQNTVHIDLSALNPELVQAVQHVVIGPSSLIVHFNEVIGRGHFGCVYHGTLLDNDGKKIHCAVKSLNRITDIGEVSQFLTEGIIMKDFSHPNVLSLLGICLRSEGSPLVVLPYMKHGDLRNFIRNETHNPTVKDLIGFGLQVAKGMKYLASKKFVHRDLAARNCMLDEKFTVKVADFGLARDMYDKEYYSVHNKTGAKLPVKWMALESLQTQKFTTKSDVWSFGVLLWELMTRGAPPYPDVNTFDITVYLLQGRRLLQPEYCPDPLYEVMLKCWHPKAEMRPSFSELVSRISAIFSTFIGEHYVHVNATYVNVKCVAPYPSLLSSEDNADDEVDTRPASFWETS
Experimental: as §1
Phosphorylation inhibition assay: Z′-LYTE™ Kinase Assay-Tyr6 Peptide kit (Invitrogen) was used to assess the ability of tested compounds to inhibit c-Met phosphorylation. […] After 1 hour incubation at room temperature, 10 μl development solution containing site-specific protease was added to each well. Incubation was continued for 1 hour. The reaction was then stopped, and the fluorescent signal ratio of 445 nm (coumarin)/520 nm (fluorescein) was determined on a plate reader (BioTek FLx800™), which reflects the peptide substrate cleavage status and/or the kinase inhibitory activity in the reaction. […] The IC50 value for each compound was calculated by nonlinear regression of log concentration versus % c-Met phosphorylation ±S.E.M., implemented in GraphPad Prism version 5.0 (GraphPad Software, CA, USA).

c-Met [5] = molecular target: T1, c-Met; test: Western blot of pMet in c-Met amplified H1993 lung cancer cells without HGF; type: cell-based; design: endogenous in cells; conditions: 5 μM compound; no HGF, constitutive c-Met activation
Experimental: as §1
H1993 cells have c-Met amplification such that they have high levels of pMet, even in the absence of HGF, due to constitutive c-Met dimerization and autophosphorylation.
as §3

T1 sequence (P08581 25-1390): as above

Question: For `O=[N+]([O-])c1ccc(C=Cc2ccc([N+](=O)[O-])cc2S(=O)(=O)O)c(S(=O)(=O)O)c1` [DNDS, 4,4′-dinitrostilbene-2,2′-disulfonic acid], which inhibition at 2000 µM (c-Met [1]; DU-145, read-out: inhibition of c-Met) is on record?
Answer: ~90%

Question: Which EGFR activation (EGFR) does the source give for `O=S(=O)(O)c1cc(N=C=S)ccc1CCc1ccc(N=C=S)cc1S(=O)(=O)O` [H2DIDS, 4,4′-Diisothiocyanatodihydrostilbene-2,2′-disulfonic acid] here?
Answer: do not significantly reduce

Question: And the IGFR activation (IGFR)?
Answer: do not significantly reduce

Question: And the HGF-induced cell scattering (DU145 cells [2]; 33 ng/ml HGF overnight)?
Answer: able to reduce HGF-induced

Question: What about the EGF-induced cell scattering (DU145 cells [2]; 100 ng/ml EGF overnight) of the same molecule?
Answer: not EGF-induced

Question: And the HGF-induced wound healing (DU145 cells [3]; 4 μM DIDS or 25 μM H2DIDS, 33 ng/ml HGF)?
Answer: significantly reduced

Question: What about the EGF-mediated wound healing (DU145 cells [3]; 4 μM DIDS or 25 μM H2DIDS, 100 ng/ml EGF) of the same molecule?
Answer: minimal effects

Question: And the “HGF-induced wound healing, dose response” value (DU145 cells [3]; indicated concentrations, 33 ng/mL HGF)?
Answer: reduce HGF-induced wound healing in a dose response manner

Question: What about the “HGF-induced invasion through Matrigel” value (DU145 cells [4]) of the same molecule?
Answer: inhibited HGF-induced invasion through Matrigel in a dose-dependent manner

Question: And the “proliferation in complete media in 2D assay” value (Cells; complete media)?
Answer: minimal effects

Question: And the “serum-free proliferation in 2D assay” value (Cells; serum-free media)?
Answer: minimal effects

Question: What about the “lowest concentration with some inhibitory effects on HGF-induced spheroid growth” value (DU145 spheroids) of the same molecule?
Answer: 40 nM

Question: And the “decrease of HGF-induced DU145 spheroid growth” value (DU145 spheroids; 5 μM compound)?
Answer: ~60%

Question: And the “IC50, wild-type c-Met” value (wild-type c-Met; cell-free kinase assay, 200 μM ATP)?
Answer: low micromolar range

Question: What about the IC50 (wild-type c-Met; cell-free kinase assay, 200 μM ATP, read-out: IC50, wild-type c-Met) of the same molecule?
Answer: 3.6 µM

Question: What about the “pMet levels in H1993 cells” value (c-Met [5]) of the same molecule?
Answer: much less significant effects

Question: And the “reduction of c-Met activation” value (c-Met [1]; 8 μM compound, DU145 cells, 33 ng/ml HGF 20 min, serum-free, Western blot densitometry)?
Answer: ~90%

Question: And the “effective concentrations for reducing c-Met activation in 10% FBS” value (c-Met [1]; DU145 cells, 33 ng/ml HGF 20 min, 10% FBS RPMI, compared with serum-free)?
Answer: slightly higher effective concentrations

Question: And the “c-Met inhibitory effective doses” value (c-Met [1]; multiple cancer cell lines (summary))?
Answer: low micromolar range

Question: `CC(=O)Nc1ccc(C=Cc2ccc(N=C=S)cc2S(=O)(=O)O)c(S(=O)(=O)O)c1` [SITS, 4-acetamido-4′-isothiocyanatostilbene-2,2′-disulfonic acid] was tested. Which inhibition at 250 µM (c-Met [1]; DU-145, 250 μM compound, DU145 cells, 33 ng/ml HGF 20 min, serum-free) did it give?
Answer: ~90%

Question: How did the “reduction of c-Met phosphorylation” value (wild-type c-Met; 500 nM compound, kinase assay) turn out when `Cc1[nH]c(/C=C2\C(=O)Nc3ccc(S(=O)(=O)N(C)c4cccc(Cl)c4)cc32)c(C)c1C(=O)N1CCN(C)CC1` [SU11274, reference compound] was run?
Answer: ~70%

Question: What about the “pMet levels in H1993 cells” value (c-Met [5]) of the same molecule?
Answer: ameliorated pMet levels
